Experimental data published in patent publication US4705797A, “N-(3,3-diphenylpropyl) aminoethyl esters of 1,4-dihydro-2,6-dimethyl-pyridine-3,5-dicarboxylic acid, compositions and use” (Recordati S.A., Chemical and Pharmaceutical Company, priority 1984, dated 1987).
Read-outs that look alike come from different tables or passages of the source.

Legend:
[1] = LD50 determined in the mouse, i.p. and per os (Weil method); type: in vivo; settings: in vivo
Procedure: (§1) The LD50 of the compounds according to the invention was determined in the mouse, both i.p. and per os, according to the method described by C. S. Weil [Biometrics, 8, 249 (1952)].

hypertensive rats (SHR) = test: Antihypertensive activity in male hypertensive rats (SHR), systolic blood pressure by indirect tail-cuff method; type: in vivo, rat (SHR, Wister-Kyoto strain); settings: 0.5% methylcellulose, systolic blood pressure measured 1, 3, 5 and 7 hours after administration; for ED25: Rattus norvegicus, po, read-out: ED25 SHR os (antihypertensive activity); for ED25 SHR os (antihypertensive activity): oral
Procedure: The antihypertensive activity of the diesters according to the invention was evaluated in male hypertensive rats (SHR, Wister-Kyoto strain, 15-25 weeks old). The determination of blood pressure was performed by an indirect method [M. Gerald et al., Arzneim. Forsch., 18, 1825 (1968)]. The animals were prewarmed in a heating chamber at a temperature of from 35° C. to 37° C. for a period of 15 minutes before pressure determination. The compounds tested by oral route were dissolved or suspended in a 0.5% methylcellulose solution. Controls were given only the vehicle. Systolic blood pressure and heart rate were measured 1, 3, 5 and 7 hours after drug administration by means of a tail-cuff and a pulse transducer.

[2] = system: methacholine induced coronary spasm; test: Coronary dilating activity: antagonism of methacholine induced coronary spasm in anesthetized normotensive rats; type: in vivo; settings: Rattus norvegicus, iv, i.v. infusion in water:dimethylformamide 9:1, normalization of ECG during methacholine infusion
Procedure: Coronary dilating activity was evaluated in anesthetized normotensive rats (weighing about 500 g), as the ability to antagonize methacholine induced coronary spasm. Rats were instrumented for methacholine infusion into the coronary ostium, while spastic activity was detected as ST segment elevation in D2 ECG recording [K. Sakai et al., J. Pharm. Meth., 5, 325 (1981)].
The compounds tested by i.v. infusion were dissolved in water: dimethylformamide (9:1 by volume). Activity was detected as normalization of ECG tracing after compounds administration during methacholine infusion.

mouse = test: LD50 determined in the mouse, i.p. and per os (Weil method); type: in vivo; settings: for LD50 os: per os
Procedure: as §1

Compound | LD50 ([1]; ip, read-out: LD50 i.p.) [mg/kg] | LD50 ([1]; po, per os, read-out: LD50 os) [mg/kg] | ED25 (hypertensive rats (SHR)) [mg/kg] | ED50 [2] [mg/kg] | LD50 i.p. (mouse) [mg/kg] | LD50 os (mouse) [mg/kg] | ED25 SHR os (antihypertensive activity) (hypertensive rats (SHR)) [mg/kg]
COC(=O)C1=C(C)NC(C)=C(C(=O)OCCCN(C)CCC(c2ccccc2)c2ccccc2)C1c1cccc([N+](=O)[O-])c1 (stereo not drawn) [compound 2263, methyl N-(3,3-diphenylpropyl)-N-methyl-3-aminopropyl 1,4-dihydro-2,6-dimethyl-4-(3-nitrophenyl)-pyridine-3,5-dicarboxylate] | 171 | 254 | 3.4 | 0.197 | – | – | –
COC(=O)C1=C(C)NC(C)=C(C(=O)OCCNCCC(c2ccccc2)c2ccccc2)C1c1cccc([N+](=O)[O-])c1 (stereo not drawn) [compound 2279, methyl N-(3,3-diphenylpropyl)-2-amino-ethyl 1,4-dihydro-2,6-dimethyl-4-(3-nitrophenyl)-pyridine-3,5-dicarboxylate] | 121 | 279 | 7.3 | 0.297 | – | – | –
CC1=C(C(=O)OCCN(C)CCC(c2ccccc2)c2ccccc2)C(c2cccc([N+](=O)[O-])c2)C(C(=O)OCC(C)C)=C(C)N1 (stereo not drawn) [compound 2352, isobutyl N-(3,3-diphenylpropyl)-N-methyl-2-aminoethyl 1,4-dihydro-2,6-dimethyl-4-(3-nitrophenyl)-pyridine-3,5-dicarboxylate] | – | – | – | – | 222 | 2195 | 6.9
COC(=O)C1=C(C)NC(C)=C(C(=O)OCCCCN(C)CCC(c2ccccc2)c2ccccc2)C1c1cccc([N+](=O)[O-])c1 (stereo not drawn) [compound 2361, methyl N-(3,3-diphenylpropyl)-N-methyl-4-aminobutyl 1,4-dihydro-2,6-dimethyl-4-(3-nitrophenyl)-pyridine-3,5-dicarboxylate] | 99 | 493 | 7.2 | – | – | – | –
COC(=O)C1=C(C)NC(C)=C(C(=O)OC(C)CN(C)CCC(c2ccccc2)c2ccccc2)C1c1cccc([N+](=O)[O-])c1 (stereo not drawn) [compound 2288, methyl 1, N-dimethyl-N-(3,3-diphenylpropyl)-2-aminoethyl 1,4-dihydro-2,6-dimethyl-4-(3-nitrophenyl)-pyridine-3,5-dicarboxylate] | 72 | 197 | 1.5 | 0.046 | – | – | –
CC1=C(C(=O)OCCN(C)CCC(c2ccccc2)c2ccccc2)C(c2cccc([N+](=O)[O-])c2)C(C(=O)OCC(C)C)=C(C)N1 (stereo not drawn) [compound 2329, isobutyl N-(3,3-diphenylpropyl)-N-methyl-2-aminoethyl 1,4-dihydro-2,6-dimethyl-4-(3-nitrophenyl)-pyridine-3,5-dicarboxylate] | – | – | – | – | 63 | 401 | 3.4
CC1=C(C(=O)OCCN(C)CCC(c2ccccc2)c2ccccc2)C(c2cccc([N+](=O)[O-])c2)C(C(=O)OC(C)C)=C(C)N1 (stereo not drawn) [compound 2350, isopropyl N-(3,3-diphenylpropyl)-N-methyl-2-aminoethyl 1,4-dihydro-2,6-dimethyl-4-(3-nitrophenyl)-pyridine-3,5-dicarboxylate] | 50 | 116 | 3 | – | – | – | –
CC1=C(C(=O)OCC(C)C)C(c2cccc(Cl)c2Cl)C(C(=O)OC(C)CN(C)CCC(c2ccccc2)c2ccccc2)=C(C)N1 (stereo not drawn) [compound 2383, isobutyl 1,N-dimethyl-N-(3,3-diphenylpropyl)-2-aminoethyl 1,4-dihydro-2,6-dimethyl-4-(2,3-dichlorophenyl)-pyridine-3,5-dicarboxylate] | – | 500 | 3.4 | – | – | – | –
COC(=O)C1=C(C)NC(C)=C(C(=O)OC(C)(C)CN(C)CCC(c2ccccc2)c2ccccc2)C1c1cccc([N+](=O)[O-])c1 (stereo not drawn) [compound 2375, methyl 1,1,N-trimethyl-N-(3,3-diphenylpropyl)-2-aminoethyl 1,4-dihydro-2,6-dimethyl-4-(3-nitrophenyl)-pyridine-3,5-dicarboxylate] | 83 | 657 | 2.6 | 0.082 | – | – | –
